According to ChEMBL document CHEMBL5154859, “Targeting the Aryl Hydrocarbon Receptor with Microbial Metabolite Mimics Alleviates Experimental Colitis in Mice” (J Med Chem, 2022):

Legend:
[1] = Metabolic stability in mouse plasma assessed as half life by LC/MS analysis; assay type: ADME, cell-free
[2] = target: T1, AhR (aryl hydrocarbon receptor) (Homo sapiens, UniProt P35869); assay: Agonist activity at AhR (unknown origin) transfected in human AZ-AHR reporter cells derived from human HepG2 cells assessed as relative efficacy incubated for 4 hrs by luciferase reporter gene assay relative to control; assay type: cell-based; conditions: read-out: Efficacy
T1 sequence (P35869 whole entry): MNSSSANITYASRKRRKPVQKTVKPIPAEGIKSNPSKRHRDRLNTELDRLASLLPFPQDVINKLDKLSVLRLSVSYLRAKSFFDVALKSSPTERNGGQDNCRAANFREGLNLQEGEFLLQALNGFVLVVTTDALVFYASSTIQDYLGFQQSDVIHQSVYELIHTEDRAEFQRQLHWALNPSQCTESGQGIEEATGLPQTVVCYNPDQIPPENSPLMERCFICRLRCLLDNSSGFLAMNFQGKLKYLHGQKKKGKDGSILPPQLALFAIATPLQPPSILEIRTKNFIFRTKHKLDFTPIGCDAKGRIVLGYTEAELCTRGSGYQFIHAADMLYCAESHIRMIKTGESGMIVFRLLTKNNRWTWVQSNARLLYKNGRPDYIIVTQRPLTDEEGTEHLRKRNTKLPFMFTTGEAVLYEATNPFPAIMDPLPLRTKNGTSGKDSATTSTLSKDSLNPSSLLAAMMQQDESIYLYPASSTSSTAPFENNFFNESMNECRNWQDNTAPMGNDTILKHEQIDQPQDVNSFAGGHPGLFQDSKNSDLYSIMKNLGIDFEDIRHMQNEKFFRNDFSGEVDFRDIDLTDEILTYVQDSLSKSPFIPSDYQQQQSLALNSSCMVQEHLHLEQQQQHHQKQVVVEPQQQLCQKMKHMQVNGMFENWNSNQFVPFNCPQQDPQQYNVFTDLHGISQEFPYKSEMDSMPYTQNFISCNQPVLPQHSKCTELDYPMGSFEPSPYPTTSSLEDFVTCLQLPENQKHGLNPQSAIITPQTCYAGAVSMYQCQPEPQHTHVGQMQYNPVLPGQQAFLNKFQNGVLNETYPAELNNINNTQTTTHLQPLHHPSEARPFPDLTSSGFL

[3] = target: T2, Aryl hydrocarbon receptor (Homo sapiens, UniProt P35869); assay: Agonist activity at AhR in human AZ-AHR reporter cell derived from human HepG2 cells assessed as increase in luciferase activity at 1 uM measured after 8 to 24 hrs; assay type: cell-based; conditions: TDE = time-dependent effect, time 8-24 hrs
T2 sequence (P35869 whole entry): T1 sequence (P35869 whole entry)

[4] = target: T3, Aryl hydrocarbon receptor (Mus musculus, UniProt P30561); assay: Displacement of [3H]TCDD from mouse AhR expressed in mouse Hepa1c1c7 cells cytosol incubated for 2 hrs by competitive radioligand binding assay; assay type: subcellular
T3 sequence (P30561 whole entry): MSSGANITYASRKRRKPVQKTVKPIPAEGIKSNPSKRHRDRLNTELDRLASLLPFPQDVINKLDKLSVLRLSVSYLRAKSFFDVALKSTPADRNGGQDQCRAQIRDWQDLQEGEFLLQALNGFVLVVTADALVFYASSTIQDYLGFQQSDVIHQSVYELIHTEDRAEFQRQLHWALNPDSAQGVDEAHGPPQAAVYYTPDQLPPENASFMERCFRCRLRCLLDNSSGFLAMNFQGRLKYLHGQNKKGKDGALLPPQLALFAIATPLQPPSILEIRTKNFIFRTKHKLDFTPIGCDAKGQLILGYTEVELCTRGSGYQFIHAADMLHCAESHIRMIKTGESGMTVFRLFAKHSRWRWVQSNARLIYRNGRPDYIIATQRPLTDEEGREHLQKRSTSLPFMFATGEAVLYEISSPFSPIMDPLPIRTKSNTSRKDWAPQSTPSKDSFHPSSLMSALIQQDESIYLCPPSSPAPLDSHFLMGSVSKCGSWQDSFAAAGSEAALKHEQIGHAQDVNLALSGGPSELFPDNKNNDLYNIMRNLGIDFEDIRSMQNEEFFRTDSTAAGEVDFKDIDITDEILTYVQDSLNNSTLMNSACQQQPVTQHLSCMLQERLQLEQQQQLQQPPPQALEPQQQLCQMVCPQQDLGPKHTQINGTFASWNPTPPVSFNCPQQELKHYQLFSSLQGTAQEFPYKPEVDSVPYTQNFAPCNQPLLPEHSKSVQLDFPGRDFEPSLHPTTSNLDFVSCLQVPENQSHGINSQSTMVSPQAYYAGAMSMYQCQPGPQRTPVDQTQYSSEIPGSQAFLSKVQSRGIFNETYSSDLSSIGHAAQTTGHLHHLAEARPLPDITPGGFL

[5] = target: T3, Aryl hydrocarbon receptor; assay: Agonist activity at AhR in mouse Hepa2Dluc cells; assay type: cell-based
[6] = target: T2, Aryl hydrocarbon receptor; assay: Agonist activity at AhR (unknown origin) transfected in human AZ-AHR reporter cells derived from human HepG2 cells incubated for 4 hrs by luciferase reporter gene assay; assay type: cell-based; conditions: for Activity: human, az-ahr, 4 h, DDE = dose-dependent effect
[7] = target: T2, Aryl hydrocarbon receptor; assay: Agonist activity at AhR in human LS180 cells assessed as binding of AhR to CYP1A1 promoter gene at 1 uM incubated for 90 mins by chromatin immunoprecipitation assay; assay type: cell-based; conditions: ls180, 1.5 h
[8] = target: T2, Aryl hydrocarbon receptor; assay: Agonist activity at AhR in human LS180 cell lysates assessed as induction of AhR-ARNT heterodimerization at 1 uM incubated for 90 mins by co-immunoprecipitation assay; assay type: subcellular; conditions: ls180, 1.5 h
[9] = target: T2, Aryl hydrocarbon receptor; assay: Agonist activity at AhR in human LS180 cells assessed as induction of nuclear translocation at 1 uM incubated for 90 mins by DAPI staining based confocal fluorescence microscopic analysis; assay type: cell-based; conditions: ls180, 1.5 h
[10] = Stability in cell-free culture media assessed as parent compound remaining at 1 uM incubated for 12 hrs in presence of serum by LC/MS analysis; assay type: physicochemical; conditions: cell-free culture media with serum, read-out: Stability
[11] = target: T4, Nuclear receptor subfamily 1 group I member 2 (Homo sapiens, UniProt O75469); assay: Displacement of fluorescence labeled ligand from human PXR ligand binding domain by Lanthascreen TR-FRET assay
T4 sequence (O75469 whole entry): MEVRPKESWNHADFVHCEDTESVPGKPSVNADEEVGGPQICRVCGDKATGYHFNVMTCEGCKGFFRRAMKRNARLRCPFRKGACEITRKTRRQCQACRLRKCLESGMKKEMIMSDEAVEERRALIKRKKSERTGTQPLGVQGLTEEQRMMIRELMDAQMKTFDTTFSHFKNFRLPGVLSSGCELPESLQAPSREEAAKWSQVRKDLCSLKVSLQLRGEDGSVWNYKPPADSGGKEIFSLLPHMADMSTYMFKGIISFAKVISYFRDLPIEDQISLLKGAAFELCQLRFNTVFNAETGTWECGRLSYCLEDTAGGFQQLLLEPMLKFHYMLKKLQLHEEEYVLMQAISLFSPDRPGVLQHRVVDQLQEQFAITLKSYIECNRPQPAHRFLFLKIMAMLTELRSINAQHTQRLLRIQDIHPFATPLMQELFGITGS

[12] = target: T4, Nuclear receptor subfamily 1 group I member 2; assay: Agonist activity at human PXR transfected in human LS180 cells cotransfected with luciferase reporter plasmid p2A4-Luc assessed as transcriptional activity incubated for 24 hrs by luciferase reporter assay; assay type: cell-based

In the case of COC(=O)c1csc(C(=O)c2c[nH]c3ccccc23)n1, the half-life [1] is reported as 44 min, the Emax at 4 h [2] is reported as 131% and the Activity [3] is reported as “Tde”. The Ki [4] was 10 nM and the EC50 [5] was 10 nM.
With C=CCn1cc(C(=O)c2nccs2)c2ccccc21 the Emax at 4 h [2] was 63.9% and the Activity [6] was “Dde”.
For COc1cc(Cn2cc(C(=O)c3nccs3)c3ccccc32)cc(OC)c1, the Emax at 4 h [2] was 57% and the Activity [6] was “Dde”.
In the case of COc1ccc(Cn2cc(C(=O)c3nccs3)c3ccccc32)cc1, the Activity [7] is reported as “Active”, the Activity [8] is reported as “Active” and the Emax at 4 h [2] is reported as 133%. For the same molecule, the Activity [3] was “Tde”, the Ki [4] was 800 nM and the Activity [9] was “Active”. For the same molecule, the EC50 [6] was 110 nM.
In the case of O=C(c1nccs1)c1cn(C(=O)c2ccccc2)c2ccccc12, the Emax at 4 h [2] is reported as 81.4% and the Activity [6] is reported as “Dde”.
With Cn1cc(C(=O)c2nccs2)c2ccccc21 the Emax at 4 h [2] was 62.9% and the Activity [6] was “Dde”.
For CC(=O)n1cc(C(=O)c2nccs2)c2ccccc21, the Emax at 4 h [2] was 106% and the Activity [6] was “Dde”.
CNC(=O)c1csc(C(=O)c2c[nH]c3ccccc23)n1 showed a remaining at 12 h, 1 µM [10] of 5%, an IC50 [11] of 32100 nM and an EC50 [12] of 12000 nM.
